Structures are written as SMILES. pEC50, pIC50: −log10 of the molar value.

The values below come from patent US10604554B2, “Double-acylated GLP-1 derivatives” (Novo Nordisk A/S, priority 2012, dated 2020).

Assay [1] has as its target T1, human GLP-1 receptor (Homo sapiens, UniProt P43220).
T1 construct: expressed in transfected cells; host or cells: BHK cells, clone FCW467-12A/KZ10-1 (parent line BHKTS13), further transfected with CRE luciferase
In words: In vitro potency (CRE luciferase; whole cells). In kind it is cell-based. More on the design: EC50/pM (ratio 1% HSA/0% HSA): unit not given here. Conditions: for pEC50: BHK cells; for EC50/pM (ratio 1% HSA/0% HSA): ratio of EC50 at 1% HSA to EC50 at 0% HSA. Here is the method:
The purpose of this example is to test the activity, or potency, of the GLP-1 derivatives in vitro. The in vitro potency is the measure of human GLP-1 receptor activation in a whole cell assay.
In vitro potency was determined by measuring the response of human GLP-1 receptor in a reporter gene assay. The assay was performed in a stably transfected BHK cell line that expresses the human GLP-1 receptor and contains the DNA for the cAMP response element (CRE) coupled to a promoter and the gene for firefly luciferase (CRE luciferase). When the human GLP-1 receptor was activated it results in the production of cAMP, which in turn results in the luciferase protein being expressed. When assay incubation was completed the luciferase substrate (luciferin) was added and the enzyme converts luciferin to oxyluciferin and produces bioluminescence. The luminescence was measured and was the readout for the assay.
An increase of the in vitro potency, EC50 value, in the presence of serum albumin indicates an affinity to serum albumin and represents a method to predict a protracted pharmacokinetic profile of the test substance in animal models.
The cells were cultured at 5% CO2 in cell culture medium. They were aliquoted and stored in liquid nitrogen. Before each assay an aliquot was taken up and washed twice in PBS before being suspended at the desired concentration in the assay specific buffer.
The following chemicals were used in the assay: Pluronic F-68 (10%) (Gibco 2404), human serum albumin (HSA) (Sigma A9511), ovalbumin (Sigma A5503), DMEM w/o phenol red (Gibco 11880-028), 1 M Hepes (Gibco 15630), Glutamax 100× (Gibco 35050) and steadylite plus (PerkinElmer 6016757).
1) Cell stocks were thawed in a 37° C. water bath.
2) Cells were washed three times in PBS.
3) The cells were counted and adjusted to 5×10^3 cells/50 μl (1×10^5 cells/ml) in assay medium. A 50 μl aliquot of cells was transferred to each well in the assay plate.
4) Stocks of the test compounds and reference compounds were diluted to a concentration of 0.2 μM in 0% assay buffer for the 0% HSA CRE luciferase assay and 1% assay buffer for the HSA CRE luciferase assay. […] 5) A 50 μl aliquot of compound or blank was transferred in triplicate from the dilution plate to the assay plate. […] 7) The assay plate was removed from the incubator and allowed to stand at room temperature for 15 min. 8) A 100 μl aliquot of steadylite plus reagent was added to each well of the assay plate (reagent was light sensitive). 9) Each assay plate was covered with aluminum foil to protect it from light and shaken for 30 min at room temperature. 10) Each assay plate was read in a Packard TopCount NXT instrument. Calculations and Results
The data from the TopCount instrument were transferred to GraphPad Prism software. The software averages the values for each replicate and performs a non-linear regression.

The target of assay [2] is T1, human GLP-1 receptor. In words: GLP-1 receptor binding (SPA, displacement of 125I-GLP-1). How it is done: The purpose of this experiment is to investigate the binding to the GLP-1 receptor of the GLP-1 derivatives, and how the binding is potentially influenced by the presence of albumin. This is done in an in vitro experiment as described below.
In order to test the binding of the derivatives to albumin, the assay was performed with a low concentration of albumin (0.001%—corresponding to the residual amount thereof in the tracer), as well as with a high concentration of albumin (2.0% added). A shift in the binding affinity, IC50, is an indication that the peptide in question binds to albumin, and thereby a prediction of a potential protracted pharmacokinetic profile of the peptide in question in animal models.
Species (in vitro): Hamster
Biological End Point: Receptor Binding
A stable transfected cell line and a high expressing clone were selected for screening. The cells were grown at 5% CO2 in DMEM, 10% FCS, 1% Pen/Strep (Penicillin/Streptomycin) and 1.0 mg/ml of the selection marker G418.
The cells (approx. 80% confluence) were washed twice in PBS and harvested with Versene (aqueous solution of the tetrasodium salt of ethylenediaminetetraacetic acid), following which they were separated by centrifugation at 1000 rpm for 5 min. The cells/cell pellet must be kept on ice to the extent possible in the subsequent steps. The cell pellet was homogenised with Ultrathurrax for 20-30 seconds in a suitable amount of Buffer 1 (depending on the amount of cells, but e.g. 10 ml). The homogenate was centrifuged at 20000 rpm for 15 minutes. The pellet was resuspended (homogenised) in 10 ml Buffer 2 and re-centrifuged. This step was repeated once more. The resulting pellet was resuspended in Buffer 2, and the protein concentration was determined. The membranes were stored at minus 80° C.
Buffer 1:20 mM Na-HEPES+10 mM EDTA, pH 7.4
Buffer 2:20 mM Na-HEPES+0.1 mM EDTA, pH 7.4
Test compounds, membranes, SPA-particles and [^125I]-GLP-1(7-36)NH2 were diluted in assay buffer. 50 ul (micro liter) HSA (“high albumin” experiment containing 2% HSA), or buffer (“low albumin” experiment containing 0.001% HSA) was added to Optiplate, and 25 ul of test compounds were added. 5-10 ug membrane protein/sample was added (50 ul) corresponding to 0.1-0.2 mg protein/ml (to be preferably optimised for each membrane preparation). SPA-particles (Wheatgerm agglutinin SPA beads, Perkin Elmer, # RPNQ0001) were added in an amount of 0.5 mg/well (50 ul). The incubation was started with [^125I]-GLP-1]-(7-36)NH2 (final concentration 0.06 nM corresponding to 49.880 DPM, 25 ul). The plates were sealed with PlateSealer and incubated for 120 minutes at 30° C. while shaking. The plates were centrifuged (1500 rpm, 10 min) and counted in Topcounter.
In general terms: Displacement assays read how much labelled ligand stays bound in the presence of the test substance.

[3] abbreviates: In vitro potency (CRE luciferase) EC50 (0% HSA), 0% HSA.
The mark [4] stands for this setting: In vitro potency (CRE luciferase) EC50 (1% HSA), 1% HSA.
Where [5] appears, read: Receptor binding affinity IC50 (high HSA), 2.0% HSA (high albumin).
Where [6] appears, read: Receptor binding affinity IC50 (low HSA), 0.001% HSA (low albumin).

T1 sequence (P43220 24-463): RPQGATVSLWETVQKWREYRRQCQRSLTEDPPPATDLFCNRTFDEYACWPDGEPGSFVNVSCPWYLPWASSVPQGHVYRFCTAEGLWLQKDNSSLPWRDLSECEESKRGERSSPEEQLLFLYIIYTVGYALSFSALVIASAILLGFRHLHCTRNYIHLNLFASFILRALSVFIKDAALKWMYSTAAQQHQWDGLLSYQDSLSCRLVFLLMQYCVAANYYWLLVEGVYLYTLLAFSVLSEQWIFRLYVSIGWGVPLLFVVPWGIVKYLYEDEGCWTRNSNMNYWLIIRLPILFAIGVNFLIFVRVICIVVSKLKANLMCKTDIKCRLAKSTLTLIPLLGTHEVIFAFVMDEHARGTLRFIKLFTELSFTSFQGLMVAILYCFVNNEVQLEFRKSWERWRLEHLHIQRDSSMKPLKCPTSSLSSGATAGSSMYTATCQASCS

Turning to `CC[C@H](C)[C@H](NC(=O)[C@H](Cc1ccccc1)NC(=O)[C@H](CCC(=O)O)NC(=O)[C@H](CCCCNC(=O)[C@@H](N)CCCCNC(=O)[C@@H](N)CCCCNC(=O)CC[C@H](NC(=O)CCCCCCCCCOc1ccc(C(=O)O)cc1)C(=O)O)NC(=O)[C@H](C)NC(=O)[C@H](C)NC(=O)[C@H](CCC(N)=O)NC(=O)CNC(=O)[C@H](CCC(=O)O)NC(=O)[C@H](CC(C)C)NC(=O)[C@H](Cc1ccc(O)cc1)NC(=O)[C@H](CO)NC(=O)[C@H](CO)NC(=O)[C@@H](NC(=O)[C@H](CC(=O)O)NC(=O)[C@H](CO)NC(=O)[C@@H](NC(=O)[C@H](Cc1ccccc1)NC(=O)[C@@H](NC(=O)CNC(=O)[C@H](CCC(=O)O)NC(=O)C(C)(C)NC(=O)[C@@H](N)Cc1c[nH]cn1)[C@@H](C)O)[C@@H](C)O)C(C)C)C(=O)N[C@@H](C)C(=O)N[C@@H](Cc1c[nH]cn1)C(=O)N[C@@H](CC(C)C)C(=O)N[C@H](C(=O)N[C@@H](CCC(N)=O)C(=O)NCC(=O)N[C@@H](CCCNC(=N)N)C(=O)N[C@@H](CCCCNC(=O)[C@@H](N)CCCCNC(=O)[C@@H](N)CCCCNC(=O)CC[C@H](NC(=O)CCCCCCCCCOc1ccc(C(=O)O)cc1)C(=O)O)C(=O)O)C(C)C` [Example 32, N^ε26-[(2S)-2-amino-6-[[(2S)-2-amino-6-[[(4S)-4-carboxy-4-[10-(4-carboxyphenoxy)decanoylamino]butanoyl]amino]hexanoyl]amino]hexanoyl], N^ε37-[(2S)-2-amino-6-[[(2S)-2-amino-6-[[(4S)-4-carboxy-4-[10-(4-carboxyphenoxy)decanoylamino]butanoyl]amino]hexanoyl]amino]hexanoyl]-[Aib^8,His^31,Gln^34,Lys^37]-GLP-1-(7-37)-peptide], the pEC50 (in general, −log10 of the EC50, conventionally taken in molar units) in assay [1] (setting [3]) was 10.96; in assay [1] (setting [4]), 9.79. Further, the “EC50/pM (ratio 1% HSA/0% HSA)” value in assay [1] came out at 14. Besides, the negative logarithm of the IC50 (pIC50) (commonly −log10 of the IC50, conventionally taken in molar units) in assay [2] (setting [5]) was 7.57; in assay [2] (setting [6]), 8.80.

`CC[C@H](C)[C@H](NC(=O)[C@H](Cc1ccccc1)NC(=O)[C@H](CCC(=O)O)NC(=O)[C@H](CCCCNC(=O)[C@@H](N)CCCCNC(=O)[C@@H](N)CCCCNC(=O)COCCOCCNC(=O)COCCOCCNC(=O)CC[C@H](NC(=O)CCCCCCCCCCOc1ccc(C(=O)O)cc1)C(=O)O)NC(=O)[C@H](C)NC(=O)[C@H](C)NC(=O)[C@H](CCC(N)=O)NC(=O)CNC(=O)[C@H](CCC(=O)O)NC(=O)[C@H](CC(C)C)NC(=O)[C@H](Cc1ccc(O)cc1)NC(=O)[C@H](CO)NC(=O)[C@H](CO)NC(=O)[C@@H](NC(=O)[C@H](CC(=O)O)NC(=O)[C@H](CO)NC(=O)[C@@H](NC(=O)[C@H](Cc1ccccc1)NC(=O)[C@@H](NC(=O)CNC(=O)[C@H](CCC(=O)O)NC(=O)C(C)(C)NC(=O)[C@@H](N)Cc1c[nH]cn1)[C@@H](C)O)[C@@H](C)O)C(C)C)C(=O)N[C@@H](C)C(=O)N[C@@H](Cc1c[nH]c2ccccc12)C(=O)N[C@@H](CC(C)C)C(=O)N[C@H](C(=O)N[C@@H](CCCNC(=N)N)C(=O)NCC(=O)N[C@@H](CCCNC(=N)N)C(=O)N[C@@H](CCCCNC(=O)[C@@H](N)CCCCNC(=O)[C@@H](N)CCCCNC(=O)COCCOCCNC(=O)COCCOCCNC(=O)CC[C@H](NC(=O)CCCCCCCCCCOc1ccc(C(=O)O)cc1)C(=O)O)C(=O)O)C(C)C` [Example 33]: the pEC50 was 11.13 in assay [1] (setting [3]) and 10.16 in assay [1] (setting [4]). The “EC50/pM (ratio 1% HSA/0% HSA)” value in assay [1] is 11. The pIC50 in assay [2] (setting [5]) is 7.48; in assay [2] (setting [6]) it was 9.51.

Consider `CC[C@H](C)[C@H](NC(=O)[C@H](Cc1ccccc1)NC(=O)[C@H](CCC(=O)O)NC(=O)[C@H](CCCCNC(=O)[C@@H](N)CCCCNC(=O)[C@@H](N)CCCCNC(=O)COCCOCCNC(=O)CC[C@H](NC(=O)CCCCCCCCCCOc1ccc(C(=O)O)cc1)C(=O)O)NC(=O)[C@H](C)NC(=O)[C@H](C)NC(=O)[C@H](CCC(N)=O)NC(=O)CNC(=O)[C@H](CCC(=O)O)NC(=O)[C@H](CC(C)C)NC(=O)[C@H](Cc1ccc(O)cc1)NC(=O)[C@H](CO)NC(=O)[C@H](CO)NC(=O)[C@@H](NC(=O)[C@H](CC(=O)O)NC(=O)[C@H](CO)NC(=O)[C@@H](NC(=O)[C@H](Cc1ccccc1)NC(=O)[C@@H](NC(=O)CNC(=O)[C@H](CCC(=O)O)NC(=O)C(C)(C)NC(=O)[C@@H](N)Cc1c[nH]cn1)[C@@H](C)O)[C@@H](C)O)C(C)C)C(=O)N[C@@H](C)C(=O)N[C@@H](Cc1c[nH]c2ccccc12)C(=O)N[C@@H](CC(C)C)C(=O)N[C@H](C(=O)N[C@@H](CCCNC(=N)N)C(=O)NCC(=O)N[C@@H](CCCNC(=N)N)C(=O)N[C@@H](CCCCNC(=O)[C@@H](N)CCCCNC(=O)[C@@H](N)CCCCNC(=O)COCCOCCNC(=O)CC[C@H](NC(=O)CCCCCCCCCCOc1ccc(C(=O)O)cc1)C(=O)O)C(=O)O)C(C)C` [Example 34, N^ε26-[(2S)-2-amino-6-[[(2S)-2-amino-6-[[2-[2-[2-[[(4S)-4-carboxy-4-[11-(4-carboxyphenoxy)undecanoylamino]butanoyl]amino]ethoxy]ethoxy]acetyl]amino]hexanoyl]amino]hexanoyl], N^ε37-[(2S)-2-amino-6-[[(2S)-2-amino-6-[[2-[2-[2-[[(4S)-4-carboxy-4-[11-(4-carboxyphenoxy)undecanoylamino]butanoyl]amino]ethoxy]ethoxy]acetyl]amino]hexanoyl]amino]hexanoyl]-[Aib^8,Arg^34,Lys^37]-GLP-1-(7-37)-peptide], for which the pEC50 in assay [1] (setting [3]) was 11.10; in assay [1] (setting [4]), 10.23. Moreover, the “EC50/pM (ratio 1% HSA/0% HSA)” value in assay [1] turned out to be 9.1. For the same compound, the pIC50 in assay [2] (setting [5]) is 7.35; in assay [2] (setting [6]) it was 9.92.
